Results: PMC6968633, “Synthesis, antibacterial and anticancer activity, and docking study of aminoguanidines containing an alkynyl moiety” (Journal of Enzyme Inhibition and Medicinal Chemistry, 2019)
Values after ≈ are worked out from the molar mass of the structure shown. Read-outs that look alike come from different tables or passages of the source.

Assays:
[1] = system: Staphyiococcus aureus CMCC 25923; assay: Antibacterial MIC, serial dilution; assay type: cell-based, Staphylococcus aureus; settings: Staphylococcus aureus
Procedure: (§1) Test bacteria were grown to mid-log phase in Mueller–Hinton broth (MHB) or Tryptone Soya Broth (TSB) and diluted 1000-fold in the same medium. Bacteria (10^5 CFU/mL) were inoculated into MHB or TSB and dispensed at 0.2 ml/well into a 96-well microtiter plate. As positive controls, gatifloxacin, moxifloxacin, norfloxacin, oxacillin, and penicillin were used. […] Bacterial growth was determined by measuring the absorption at 630 nm using a microplate reader. All experiments were carried out three times.
(§2) The evaluation of antibacterial activity of all compounds (3a–3j and 6a–6k) was performed by a serial dilution method to determine the MIC against a panel of pathogens comprising five Gram-positive strains (S. aureus (CMCC(B) 26003 and CMCC 25923), Streptococcus mutans BNCC 336931, Enterococcus faecalis CMCC 29212, and Bacillus subtilis CMCC 63501), four Gram-negative strains (E. coli (CMCC 25922 and CMCC 44568) and P. aeruginosa (CMCC 27853 and CMCC 10104)), as well as three methicillin-resistant clinical isolates (S. aureus ATCC 43300 and ATCC 33591, P. aeruginosa ATCC BAA-2111). The results are described in Tables 1 and 2. Gatifloxacin, moxifloxacin, norfloxacin, oxacillin, and penicillin were used as positive controls.

[2] = system: Bacillus subtilis CMCC 63501; assay: Antibacterial MIC, serial dilution; assay type: cell-based; settings: Bacillus subtilis
Procedure: as §1, §2

[3] = system: Enterococcus faecalis CMCC 29212; assay: Antibacterial MIC, serial dilution; assay type: cell-based; settings: Enterococcus faecalis, CMCC29212; E. faecalis CMCC 29212, 24 h, 37 °C; read-out: MIC
Procedure: as §1, §2

[4] = system: Escherichia coli CMCC 25922; assay: Antibacterial MIC, serial dilution; assay type: cell-based; settings: Escherichia coli
Procedure: as §1, §2

[5] = system: Escherichia coli CMCC 44568; assay: Antibacterial MIC, serial dilution; assay type: cell-based; settings: Escherichia coli
Procedure: as §1, §2

[6] = system: Pseudomonas aeruginosa CMCC 10104; assay: Antibacterial MIC, serial dilution; assay type: cell-based; settings: Pseudomonas aeruginosa, CMCC10104; P. aeruginosa CMCC 10104, 24 h, 37 °C; read-out: MIC
Procedure: as §1, §2

[7] = system: Pseudomonas aeruginosa CMCC 27853; assay: Antibacterial MIC, serial dilution; assay type: cell-based; settings: Pseudomonas aeruginosa
Procedure: as §1, §2

[8] = system: Staphylococcus aureus CMCC(B)26003; assay: Antibacterial MIC, serial dilution; assay type: cell-based; settings: Staphylococcus aureus
Procedure: as §1, §2

[9] = system: Streptococcus mutans BNCC 336931; assay: Antibacterial MIC, serial dilution; assay type: cell-based; settings: Streptococcus mutans, BNCC336931; S. mutans BNCC 336931, 24 h, 37 °C; read-out: MIC
Procedure: as §1, §2

[10] = system: Staphylococcus aureus ATCC 33591; assay: Antibacterial MIC, multidrug-resistant clinical isolate; assay type: cell-based; settings: Staphylococcus aureus, ATCC33591; multidrug-resistant S. aureus ATCC 33591; read-out: MIC
Procedure: as §1, §2

[11] = system: Staphylococcus aureus ATCC 43300; assay: as above; assay type: cell-based; settings: Staphylococcus aureus, ATCC43300; multidrug-resistant S. aureus ATCC 43300; read-out: MIC
Procedure: as §1, §2

[12] = CMCC25923, S. aureus CMCC 25923, 24 h, 37 °C, read-out: MIC
[13] = CMCC63501, B. subtilis CMCC 63501, 24 h, 37 °C, read-out: MIC
[14] = CMCC25922, E. coli CMCC 25922, 24 h, 37 °C, read-out: MIC
[15] = CMCC44568, E. coli CMCC 44568, 24 h, 37 °C, read-out: MIC
[16] = CMCC27853, P. aeruginosa CMCC 27853, 24 h, 37 °C, read-out: MIC
[17] = S. aureus CMCC(B)26003, 24 h, 37 °C, read-out: MIC

Row | Compound | MIC [1, 12] | MIC [2, 13] | MIC [3] | MIC [4, 14] | MIC [5, 15] | MIC [6] | MIC [7, 16] | MIC [8, 17] | MIC [9] | melting point | MIC ([1]; CMCC25923, 24 h) | MIC ([4]; CMCC25922, 24 h) | MIC ([5]; CMCC44568, 24 h) | MIC ([8]; 24 h) | MIC [10] | MIC [11] | MIC ([2]; CMCC63501, 24 h) | MIC ([7]; CMCC27853, 24 h)
1 | N=C(N)NN=Cc1ccc(C#CC#Cc2ccccc2Br)cc1 [Compound 6h, 2-(4-((2-Bromophenyl)buta-1,3-diyn-1-yl)benzylidene)hydrazine-1-carboximidamide] | 32 µg/mL (≈ 87.6 µM) | 2 µg/mL (≈ 5.48 µM) | 0.5 µg/mL (≈ 1.37 µM) | 8 µg/mL (≈ 21.9 µM) | 128 µg/mL (≈ 350 µM) | 8 µg/mL (≈ 21.9 µM) | > 128 µg/mL | 1 µg/mL (≈ 2.74 µM) | 1 µg/mL (≈ 2.74 µM) | 217 to 219 °C |  |  |  |  |  |  |  | 
2 | N=C(N)NN=Cc1ccc(C#CC#Cc2cccc(F)c2)cc1 [Compound 6c, 2-(4-((3-Fluorophenyl)buta-1,3-diyn-1-yl)benzylidene)hydrazine-1-carboximidamide] | 128 µg/mL (≈ 421 µM) | 2 µg/mL (≈ 6.57 µM) | 0.5 µg/mL (≈ 1.64 µM) | 2 µg/mL (≈ 6.57 µM) | > 128 µg/mL | 4 µg/mL (≈ 13.1 µM) | > 128 µg/mL | 128 µg/mL (≈ 421 µM) | 0.5 µg/mL (≈ 1.64 µM) | 186 to 190 °C |  |  |  |  |  |  |  | 
3 | COc1c(N2C[C@@H]3CCCN[C@@H]3C2)c(F)cc2c(=O)c(C(=O)O)cn(C3CC3)c12 [Moxifloxacin, reference compound] |  |  |  |  |  | 4 µg/mL (≈ 9.96 µM) |  |  | 0.5 µg/mL (≈ 1.25 µM) |  | 0.125 µg/mL (≈ 0.311 µM) | 0.125 µg/mL (≈ 0.311 µM) | 0.125 µg/mL (≈ 0.311 µM) | 0.125 µg/mL (≈ 0.311 µM) | 0.25 µg/mL (≈ 0.623 µM) | 0.5 µg/mL (≈ 1.25 µM) |  | 
4 | Cc1onc(-c2ccccc2)c1C(=O)N[C@@H]1C(=O)N2[C@@H]1SC(C)(C)[C@@H]2C(=O)O [Oxacillin, reference compound] | 0.125 µg/mL (≈ 0.311 µM) |  | 128 µg/mL (≈ 319 µM) | 128 µg/mL (≈ 319 µM) |  | 128 µg/mL (≈ 319 µM) |  | 0.125 µg/mL (≈ 0.311 µM) | 0.125 µg/mL (≈ 0.311 µM) |  |  |  | > 128 µg/mL |  | 8 µg/mL (≈ 19.9 µM) | 64 µg/mL (≈ 159 µM) | > 128 µg/mL | > 128 µg/mL
5 | N=C(N)NN=Cc1ccc(C#Cc2ccccc2F)cc1 [Compound 3b, 2-(4-((2-Fluorophenyl)ethynyl)benzylidene)hydrazine-1-carboximidamide] | 8 µg/mL (≈ 28.5 µM) | 2 µg/mL (≈ 7.14 µM) | 1 µg/mL (≈ 3.57 µM) | 4 µg/mL (≈ 14.3 µM) | 8 µg/mL (≈ 28.5 µM) | 8 µg/mL (≈ 28.5 µM) | 128 µg/mL (≈ 457 µM) | 1 µg/mL (≈ 3.57 µM) | 4 µg/mL (≈ 14.3 µM) | 189 to 190 °C |  |  |  |  |  |  |  | 

Second part, led by results:

Row | MIC [1, 12] | MIC [2, 13] | MIC [3] | MIC [4, 14] | MIC [5, 15] | MIC [6] | MIC [7, 16] | MIC [8, 17] | MIC [9] | melting point | Compound | MIC ([1]; CMCC25923, 24 h) | MIC ([4]; CMCC25922, 24 h) | MIC ([5]; CMCC44568, 24 h) | MIC ([8]; 24 h) | MIC [10] | MIC [11] | MIC ([2]; CMCC63501, 24 h) | MIC ([7]; CMCC27853, 24 h)
6 | 1 µg/mL (≈ 2.93 µM) | 128 µg/mL (≈ 375 µM) | 0.5 µg/mL (≈ 1.47 µM) | 2 µg/mL (≈ 5.86 µM) | 128 µg/mL (≈ 375 µM) | 128 µg/mL (≈ 375 µM) | > 128 µg/mL | 0.5 µg/mL (≈ 1.47 µM) | 0.5 µg/mL (≈ 1.47 µM) | 242 to 243 °C | N=C(N)NN=Cc1ccc(C#Cc2ccc(Br)cc2)cc1 [Compound 3j, 2-(4-((4-Bromophenyl)ethynyl)benzylidene)hydrazine-1-carboximidamide] |  |  |  |  | 0.5 µg/mL (≈ 1.47 µM) | 2 µg/mL (≈ 5.86 µM) |  | 
7 | 4 µg/mL (≈ 14.3 µM) | 1 µg/mL (≈ 3.57 µM) | 1 µg/mL (≈ 3.57 µM) | 2 µg/mL (≈ 7.14 µM) | 4 µg/mL (≈ 14.3 µM) | 2 µg/mL (≈ 7.14 µM) | 16 µg/mL (≈ 57.1 µM) | 1 µg/mL (≈ 3.57 µM) | 2 µg/mL (≈ 7.14 µM) | 223 to 224 °C | N=C(N)NN=Cc1ccc(C#Cc2cccc(F)c2)cc1 [Compound 3c, 2-(4-((3-Fluorophenyl)ethynyl)benzylidene)hydrazine-1-carboximidamide] |  |  |  |  | 1 µg/mL (≈ 3.57 µM) | 2 µg/mL (≈ 7.14 µM) |  | 
